Measurements as given in patent US11083777B2, “Hemichannel extracellular-domain specific agents for treating ischemia-reperfusion injury” (The Feinstein Institutes for Medical Research, priority 2015, dated 2021).
Entries after “also recorded” stand apart in the source; their conditions may differ.

Experiments:
[1] = biological target: Panx1 hemichannels (Homo sapiens, UniProt Q96RD7); details: cited from earlier work
[2] = test system: Primary peritoneal macrophages; details: reference 49; cited from earlier work
[3] = biological target: Cx43 gap junctions (Homo sapiens, UniProt P17302); details: cited from earlier work
Chain of Cx43 gap junctions (P17302 whole entry): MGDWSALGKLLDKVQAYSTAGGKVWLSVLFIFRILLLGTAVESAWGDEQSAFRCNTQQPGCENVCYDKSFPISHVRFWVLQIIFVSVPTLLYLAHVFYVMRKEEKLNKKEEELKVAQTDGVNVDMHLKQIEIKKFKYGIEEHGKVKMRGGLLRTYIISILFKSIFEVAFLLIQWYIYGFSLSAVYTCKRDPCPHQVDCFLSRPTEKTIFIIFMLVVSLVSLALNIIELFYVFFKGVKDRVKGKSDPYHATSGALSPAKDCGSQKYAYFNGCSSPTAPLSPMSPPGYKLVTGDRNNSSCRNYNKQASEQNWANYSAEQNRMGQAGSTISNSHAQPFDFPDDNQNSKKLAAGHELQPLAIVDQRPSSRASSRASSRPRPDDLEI

[4] = test system: macrophage hemichannel activities; test: Lucifer Yellow uptake in LPS-stimulated macrophages; type: cell-based
[5] = test system: Primary peritoneal macrophages; test: LPS-induced HMGB1 secretion in primary peritoneal macrophages (Western blotting); type: cell-based, murine; details: crude LPS, 16 h, extracellular HMGB1
Protocol: FIG. 2A-2C. […] AU, arbitrary units. *, P<0.05 versus “+LPS alone.”
Primary murine macrophages and human monocytes were employed to investigate the mechanisms underlying the regulation of HMGB1 secretion by various inflammatory stimuli. Primary peritoneal macrophages were isolated from Balb/C mice (male, 7-8 weeks, 20-25 grams) at 2-3 days after intraperitoneal injection of 2 ml thioglycollate broth (4%, Difco, Detroit, Mich.) as previously described (23,78). Human peripheral blood mononuclear cells (HuPBMCs) were isolated from human blood purchased from the New York (Long Island) Blood Bank (Melville, N.Y.) by density gradient centrifugation through Ficoll (Ficoll-Paque PLUS, Pharmacia, Piscataway, N.J.) as previously described (23,78,79). At 80-90% confluence, macrophage/monocyte cultures will be stimulated with divergent stimuli: ultrapure and crude LPS, CIRP 14, SAA (PeproTech, Cat. No. 300-13) at different concentrations and for various time periods (0, 6, 12, and 18 h). The expression levels of Cx43 or Panx1 hemichannel proteins in macrophage/monocyte cultures are determined by Western blotting or immunocytochemistry techniques as previously described (21,23,80).

[6] = biological target: Panx1 hemichannel (Homo sapiens, UniProt Q96RD7); details: cited from earlier work
Chain of Panx1 hemichannel (Q96RD7 whole entry): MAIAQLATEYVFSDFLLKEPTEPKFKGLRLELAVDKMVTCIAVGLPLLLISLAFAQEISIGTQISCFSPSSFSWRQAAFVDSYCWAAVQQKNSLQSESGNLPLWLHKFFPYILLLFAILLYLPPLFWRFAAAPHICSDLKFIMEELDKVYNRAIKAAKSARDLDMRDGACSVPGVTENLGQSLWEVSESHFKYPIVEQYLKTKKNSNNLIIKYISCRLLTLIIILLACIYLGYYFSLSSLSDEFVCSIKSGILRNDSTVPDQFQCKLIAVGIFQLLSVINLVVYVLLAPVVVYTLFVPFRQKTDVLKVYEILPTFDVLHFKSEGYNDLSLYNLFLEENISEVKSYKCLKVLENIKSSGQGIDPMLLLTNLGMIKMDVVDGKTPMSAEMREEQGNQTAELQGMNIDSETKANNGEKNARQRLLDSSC

[7] = test system: Primary peritoneal macrophages; test: LPS-induced NO production in primary peritoneal macrophages (Griess reaction); type: cell-based, murine; details: crude LPS, 16 h
[8] = test system: PKR; test: LPS-induced PKR expression and phosphorylation (Western blotting); type: cell-based, murine; details: crude LPS, 16 h, primary macrophages
[9] = in vivo; cited from earlier work
[10] = biological target: Cx43 hemichannel (Homo sapiens, UniProt P17302); details: ATP release or dye uptake; cited from earlier work
Chain of Cx43 hemichannel (P17302 whole entry): as the sequence (P17302 whole entry) above

[11] = test system: connexin 43-gated hemichannel activities; test: Lucifer Yellow dye uptake in LPS-stimulated RAW 264.7 cells; type: cell-based; details: LPS 16 h, LY 1 mg/ml 15 min
Protocol: FIG. 8. […] The Lucifer Yellow dye uptake was used to measure the connexin 43-gated hemichannel activities. […] Subsequently, cell cultures were incubated with Lucifer Yellow (LY, 1 mg/ml) for 15 min, and fixed with 2% paraformaldehyde following three extensive washes with 1× PBS. The number of cells with diffused fluorescent signals was counted under a fluorescence microscope. The cells containing punctuate fluorescent signals were excluded, as the punctuate signals likely resulted from phagocytosis (rather than passive diffusion through Cx43 hemichannels) of the LY dye.
The Lucifer Yellow dye uptake was used to measure the connexin 43-gated hemichannel activities. […] Subsequently, cell cultures were incubated with Lucifer Yellow (LY, 1 mg/ml) for 15 min, and fixed with 2% paraformaldehyde following three extensive washes with 1×PBS. The number of cells with diffused fluorescent signals was counted under a fluorescence microscope. The cells containing punctuate fluorescent signals were excluded, as the punctuate signals likely resulted from phagocytosis (rather than passive diffusion through Cx43 hemichannels) of the LY dye. […] Animal survival was assessed for up to two weeks, and the Kaplan-Meier method was used to compare the differences in mortality rates between groups. […]

[12] = test system: C57BL/6 mice; test: Hepatic ischemia/reperfusion injury, serum ALT and AST; type: in vivo; details: 10.0 mg/kg BW via internal jugular vein at beginning of reperfusion; 24 h
Protocol: FIG. 10. Intravenous administration of Cx43 peptide antagonist conferred protection against hepatic ischemia/reperfusion (I/R) injury. Male C57BL/6 mice (20-25 g) were subjected to hepatic ischemia/reperfusion by temporally clamping the hepatic artery and portal vein for 60 minutes, which typically produced ischemia in 70% of the liver. At the beginning of the reperfusion, 0.2 ml saline, P5 (ENVCYD; 10.0 mg/kg BW) or P5A (ENVSYD (SEQ ID NO:14); 10.0 mg/kg BW) was injected via the internal jugular vein. At 24 h after the onset of ischemia, animals were euthanized to harvest blood to measure serum levels of hepatic injury markers such as alanine aminotransferase (ALT) and aspartate aminotransferase (AST) using commercial kits.
Intravenous administration of Cx43 peptide antagonist conferred protection against hepatic ischemia/reperfusion (I/R) injury. Male C57BL/6 mice (20-25 g) were subjected to hepatic ischemia/reperfusion by temporally clamping the hepatic artery and portal vein for 60 minutes, which typically produced ischemia in 70% of the liver. At the beginning of the reperfusion, 0.2 ml saline, P5 (ENVCYD, 10.0 mg/kg BW) or P5A (ENVSYD (SEQ ID NO:14), 10.0 mg/kg) was injected via the internal jugular vein. […]

Chain of Panx1 hemichannels (Q96RD7 whole entry): as the sequence (Q96RD7 whole entry) above

For “10Panx: Panx1-specific mimetic inhibitory peptide, residues 74 to 83 of SEQ ID NO:16 (WRQAAFVDSY; HOMO SAPIENS)”, the “P2X7R-induced Panx1 hemichannel activation” value [1] is given as “selectively attenuate”.
In the case of `CC1(C)[C@@H](OC(=O)CCC(=O)O)CC[C@]2(C)[C@H]3C(=O)C=C4[C@@H]5C[C@@](C)(C(=O)O)CC[C@]5(C)CC[C@@]4(C)[C@]3(C)CC[C@@H]12` [CBX, carbenoxolone], the EC50 [1] is given as 1 to 4 µM, the “concentrations of CBX used to abrogate LPS-induced HMGB1 secretion in macrophages” value [2] is given as 5 to 10 µM and the EC50 [3] is given as 50 to 100 µM. For the same molecule, the “number of LY-positive cells” value ([4]; prolonged LPS stimulation, quiescent approximately 2%, LPS alone ~16%) was 6-8%, the “LPS-induced HMGB1 secretion” value [5] was “effectively suppressed; also recorded: dose-dependently abrogated; also recorded: remarkably inhibited” and the “Panx1 hemichannel-mediated ATP release” value ([6]; CBX 10 μM, hypoxia, sheer stress, low oxygen tension) was “effectively inhibited”. For the same molecule, the “ATP release from apoptotic cells” value ([6]; CBX >100 μM) was “uniformly attenuated”, the “LPS (endotoxin)-induced NO production” value [7] was “effectively suppressed; also recorded: remarkably inhibited” and the “LPS-induced elevation of PKR expression and phosphorylation” value [8] was “dose-dependently abrogated; also recorded: significantly attenuated”.
For `CC1(C)[C@@H](O[C@H]2O[C@H](C(=O)O)[C@@H](O)[C@H](O)[C@H]2O[C@@H]2O[C@H](C(=O)O)[C@@H](O)[C@H](O)[C@H]2O)CC[C@]2(C)[C@H]3C(=O)C=C4[C@@H]5C[C@@](C)(C(=O)O)CC[C@]5(C)CC[C@@]4(C)[C@]3(C)CC[C@@H]12` [GZA, glycyrrhizic acid], the “benefit in animal models of hepatitis, hepatic ischemia/reperfusion, toxin-induced liver injury, endotoxemia, colitis” value [9] is given as “proven beneficial”.
With `Nc1ncnc2c1ncn2[C@@H](C=O)O[C@@H](C=O)COP(=O)(O)OP(=O)(O)OP(=O)(O)O` [oATP] the “LPS-induced LY-uptake” value ([4]; data not shown) was “similarly inhibited”, the “LPS-induced HMGB1 secretion” value [5] was “similarly inhibited” and the “LPS-induced elevation of PKR expression and phosphorylation” value [8] was “significantly attenuated”.
In the case of `CCCN(CCC)S(=O)(=O)c1ccc(C(=O)O)cc1` [probenecid], the “specificity for Panx1 (over Cx43)” value [1] is given as “more specific inhibitor”.
In the case of “Gap19: mimetic peptide KQIEIKKFK (SEQ ID NO:19), intracellular loop of Cx43 (HOMO SAPIENS)”, the Panx1 channel activity [1] is listed as “without affecting”, the “Cx43 gap junction communication” value [3] is listed as “without affecting” and the Cx43 hemichannel activities [10] is listed as “specifically inhibits”.
For “P5: peptide ENVCYD (SEQ ID NO:1), Cx43 peptide antagonist from extracellular loop 1 (listed as Homo Sapiens)”, the “bacterial endotoxin-induced Lucifer Yellow dye uptake” value [11] was “significantly inhibited” and the “protection against hepatic I/R injury (serum ALT, AST)” value [12] was “significant protection”.
